Values after ≈ are worked out from the molar mass of the structure shown. Like-named read-outs stand apart in the source and are kept apart here.
Columns and labels:
M. bovis BCG [1] = assay: microbe, parasite or virus in culture; format: cell-based; settings: Mycobacterium tuberculosis variant bovis BCG, 120 h, read-out: minimal inhibitory concentration (MIC50)
M. bovis BCG cells = assay: microbe, parasite or virus in culture; format: cell-based; settings: Mycobacterium tuberculosis variant bovis BCG, read-out: IC50 intracellular ATP inhibition
M. bovis BCG [2] = format: cell-based; settings: 7 μM, 96 h, methylene blue
[3] = system: transmembrane pH gradient of mycobacterial IMVs; assay: Proton translocation / uncoupling assay in IMVs (ACMA fluorescence quenching); format: biochemical, M. smegmatis; settings: 2 mM NADH, uncoupler SF6847 as positive control
[4] = target: M. smegmatis 166M c-subunit mutant IMVs (Mycolicibacterium smegmatis, UniProt A0R201+A0R205+A0R206, I70M); assay: biochemical; settings: read-out: IC50 ATP synthesis, 166M mutant IMVs
[5] = system: M. smegmatis F-ATP synthase; format: biochemical; settings: for Inhibition of ATP synthesis of reconstituted MsF-ATP synthase: compound at its IC50 concentration (BDQ 4 nM; GaMF1.39 90 nM)
M. bovis BCG [6] = format: cell-based
M. smegmatis mc^2 155 = format: cell-based
zebrafish embryos = assay: Toxicity testing using zebrafish embryos; format: in vivo; settings: 9 μM, 48 hpf embryos, 5 days
Procedure: Zebrafish care and ethics statement: All Zebrafish experiments were approved by the NTU Institutional Animal Care and Use Committee under reference no #A20038. Experiments were done using wild-type AB zebrafish. The ages of the embryos are shown in hours post fertilization (hpf).
Dechorionated zebrafish wild-type embryos at 48 hpf (n=120) were used. The embryos were immersed respectively in 5 ml of E3 medium containing GaMF1.39 in 6-well plate for 5 days. DMSO was used as vehicle control. The embryos were observed under a microscope. […] The experiment was repeated twice with three replicates each.

P. aeruginosa PAO1 WT = assay: Biofilm assay, P. aeruginosa; format: cell-based, Pseudomonas aeruginosa; settings: 3 h pre-formed biofilm; 3-9 μM GaMF1.39 or 1-3 μM BDQ; PBS or M9 glucose media
E. coli UTI 189 = assay: Biofilm assay, E. coli; format: cell-based, Escherichia coli; settings: 3 h pre-formed biofilm; 3-9 μM GaMF1.39 or 1-3 μM BDQ; PBS or M9 glucose media
[7] = Microsomal stability assay; format: in vitro ADME; settings: pH 7.4; mouse liver microsomes
Procedure: Microsomal stability assay were outsourced and performed by Bioduro-Sundia Ltd, USA based on the following protocol as done in Obach, R. S., Drug Metab. Dispos., 1999, 27, 1350; McGinnity, D. F. & Riley, R. J., Biochem. Soc. Trans., 2001, 29, 135. Working solutions of each compound are prepared from 10 mM stock solution in DMSO diluted to a final concentration of 100 μM in 0.05 M phosphate buffer (pH 7.4). Aliquots of Liver Microsome working solution are transferred into 1.1 mL tubes using a multichannel pipette. Positive control (5 mixed) and test compound working solutions are transferred into the tubes. The mixtures are vortexed gently and then pre-incubated at 37° C. 5 mM NADPH were aliquoted into the tubes using a multichannel pipette and vortexed gently. At each time point of 0 min, 5 min, 15 min, 30 min and 60 min with NADPH or 0, 30 min and 60 min without NADPH, an aliquot is removed from each tube. […] Each compound is analyzed by reversed phase HPLC using a Kinetex 2.6μ C18 100 Å column (3.0 mm×30 mm, Phenomenex). […] The amount of parent compound is determined on the basis of the peak area ratio (compound area to IS area) for each time point. The estimation of Clint (in μL/min/mg protein) is calculated using the following equation: CLint (μLmin^−1 mg^−1)=ln(2)*1000/t1/2/protein concentration

M. bovis BCG [8] = assay: microbe, parasite or virus in culture; format: cell-based; settings: for MIC: Mycobacterium tuberculosis variant bovis BCG, BCG
Mtb = settings: Hotra et al. 2020; cited from earlier work
[9] = target: mycobacterial F-ATP synthase (Mycobacterium bovis, UniProt A1KI93+A1KI97); settings: read-out: IC50 NADH-driven ATP synthesis of IMVs, IMVs of M. bovis BCG; cited from earlier work
[10] = system: mycobacterial F-ATP synthase; settings: IMVs of M. smegmatis, NADH; read-out: IC50 NADH-driven ATP synthesis of IMVs; cited from earlier work
[11] = system: M. tuberculosis H37Rv-infected THP-1 cells; assay: THP-1 macrophage infection model, intracellular efficacy

Sequence of mycobacterial F-ATP synthase (Mycobacterium bovis, UniProt A1KI93+A1KI97) (A1KI93 whole entry, looked up): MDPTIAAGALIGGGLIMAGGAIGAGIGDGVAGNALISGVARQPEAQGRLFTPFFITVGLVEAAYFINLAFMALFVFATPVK
Sequence of mycobacterial F-ATP synthase (Mycobacterium bovis, UniProt A1KI93+A1KI97) (A1KI97 whole entry, looked up): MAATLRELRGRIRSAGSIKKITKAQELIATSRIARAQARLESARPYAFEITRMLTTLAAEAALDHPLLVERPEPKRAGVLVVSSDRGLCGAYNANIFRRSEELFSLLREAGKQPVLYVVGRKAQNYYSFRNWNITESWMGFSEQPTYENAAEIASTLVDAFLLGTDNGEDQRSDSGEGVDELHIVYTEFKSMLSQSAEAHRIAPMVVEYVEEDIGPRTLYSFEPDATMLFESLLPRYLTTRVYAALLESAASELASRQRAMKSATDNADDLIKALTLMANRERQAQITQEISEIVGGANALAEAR

SMILES: CCNc1cc(C)nc(Nc2ccc3nc(-c4ccc(Cl)cc4)[nH]c3c2)n1 [GaMF1.39]
- MIC50 (M. bovis BCG [1]): 6.8 µM (≈ 2.58 µg/mL)
- IC50 (M. bovis BCG cells): 3300 nM
- Oxygen consumption within the respiratory chain (M. bovis BCG [2]): unaffected
- Uncoupled proton pumping (ACMA quenching) [3]: lacked the ability to induce uncoupled proton pumping
- IC50 [4]: 64 nM
- ATP synthesis activity of reconstituted MsF-ATP synthase with compound ([5]; GaMF1.39 at its IC50 concentration, no compound 35.2±2.3): 20.5±2.6 nmol·min^−1 (mg protein)^−1
- Inhibition of ATP synthesis of reconstituted MsF-ATP synthase [5]: 42%
- Killing efficiency against M. bovis BCG (M. bovis BCG [6]; 8-fold its MIC50, up to 6 days, CFU): more efficient than its parental molecule GaMF1
- Growth of M. bovis BCG cultures in killing kinetics experiment (M. bovis BCG [6]; GaMF1.39 10×MIC50, with or without Q203 100 nM, t=10 days): inhibited the growth of M. bovis cells even after 10 days
- Killing of M. smegmatis mc^2 155 (M. smegmatis mc^2 155): killed
- Toxicity in zebrafish embryos (survival) (zebrafish embryos): no signs of toxicity-induced killing
- Killing of planktonic or biofilm cells (P. aeruginosa PAO1 WT): no killing of planktonic or biofilm cells
- Killing of planktonic or biofilm cells (E. coli UTI 189): no killing of planktonic or biofilm cells
- half-life [7]: 29.6 min
- microsomal CLint [7]: 46.8 µL/min/mg
- MIC Drug A in combination (M. bovis BCG [8]; GaMF1.39 in combination with Clofazamine): 3 µM
- MIC Drug A in combination (M. bovis BCG [8]; GaMF1.39 in combination with Q203): 0.23 µM
- MIC (M. bovis BCG [8]; 144 h, read-out: MIC Drug A alone): 6.8 µM (≈ 2.58 µg/mL)
- MIC50 against Mtb (Mtb): 3.0 µM (≈ 1.14 µg/mL)
- IC50 [9]: 51.6 ± 1.35 nM
- IC50 [10]: 90 ± 1.1 nM
- Intracellular efficacy, viable bacterial count (CFU/ml) ([11]; 3 and 9 μM, compared with initial inoculum (day 0)): showed a decrease in viable bacterial count
- Alteration of infected macrophages (microscopy) ([11]; THP-1 macrophages treated with GaMF1.39): did not show any visible optical alteration of the membrane, cell form or cell size

SMILES: COc1nc2ccc(Br)cc2cc1[C@@H](c1ccccc1)[C@@](O)(CCN(C)C)c1cccc2ccccc12 [BDQ, bedaquiline, reference compound]
- Inhibition of ATP synthesis of reconstituted MsF-ATP synthase [5]: ~51%
- Killing of planktonic or biofilm cells (P. aeruginosa PAO1 WT): No significant differences
- Killing of planktonic or biofilm cells (E. coli UTI 189): No significant differences

SMILES: CCc1nc2ccc(Cl)cn2c1C(=O)NCc1ccc(N2CCC(c3ccc(OC(F)(F)F)cc3)CC2)cc1 [Q203, Telacebec]
- MIC (M. bovis BCG [8]; read-out: MIC Drug B alone): 0.001 µM (≈ 0.000557 µg/mL)
- MIC Drug B in combination (M. bovis BCG [8]; Q203 in combination with GaMF1.39): 0.0005 µM

SMILES: CC(C)/N=c1\cc2n(-c3ccc(Cl)cc3)c3ccccc3nc-2cc1Nc1ccc(Cl)cc1 [Clofazamine, clofazimine]
- MIC Drug B alone (M. bovis BCG [8]; Clofazamine alone): 0.25 µM (≈ 0.118 µg/mL)
- MIC Drug B in combination (M. bovis BCG [8]; Clofazamine in combination with GaMF1.39): 0.125 µM

From patent US20250205234A1, “ANTI-TUBERCULAR COMPOSITIONS” (priority 2022, published 2025)
